Assay results as given in patent US20230355605A1, “DRUG FOR ENHANCING FIBRINOLYTIC SYSTEM, AND USE THEREFOR” (priority 2020, published 2023).

Experiments:
[1] = system: mouse model of bleomycin-induced pulmonary fibrosis; test: Mouse model of bleomycin-induced pulmonary fibrosis; type: in vivo
Protocol: The improvement effect of the present compound on pulmonary fibrosis (remodeling after lung damage) was evaluated using a mouse model of bleomycin-induced pulmonary fibrosis. […] Because of similarity of histopathological changes to pulmonary fibrosis in humans, this mouse model is widely used for the evaluation of the drug efficacy.
To a fibrosis mouse model (fibrosis model group) given a single dose of bleomycin (1.2 mg/mL), the present compound (0.75 mg/kg/day) was orally administered for 21 days (present compound administration group, n = 9), and biochemical analysis of the lungs and measurement of clinical conditions of the lungs were performed on day 22. For comparison, instead of the present compound, the solvent used to dissolve the present compound was administered to a fibrosis model group in the same manner (vehicle group, n = 10), and biochemical analysis and measurement of clinical conditions of the lungs were performed. As a positive control group, a dexamethasone administration group (0.25 mg/kg administration, n = 9) was used. The biochemical analysis was performed using lung hydroxyproline values as an index. The clinical conditions of the lungs were evaluated by performing Masson’s trichrome staining and calculating Ashcroft scores according to a report of Ashcroft et al. (Ashcroft T et al., J Clin Pathol, 1988; 41:467). The clinical conditions were confirmed by comparing a normal mouse group (normal group, n = 10) with the vehicle group (n = 10), and the improvement effect of the present compound on pulmonary fibrosis was evaluated by comparing the vehicle group (n = 10) with the present compound administration group (n = 9). Differences between the mean values of the groups were tested by the Bonferroni selected pairs test using Prism 4 (GraphPad Software).
Table 1 and FIG. 3(A) and FIG. 3(B) show the results of comparisons of the lung hydroxyproline values and the Ashcroft scores in the groups. The mean values of the groups are expressed as mean±SD, and examination was performed at a 5% significance level.

t-PA = t-PA activity in blood, phase I repeated oral dose study; type: in vivo, human
Protocol: The pharmacological activities (PAI-1 activity and t-PA activity) were evaluated using blood collected from the subjects before and after administration of the present compound or the placebo as test samples. Blood was collected before administration and 2, 4, and 8 hours after administration on the first day of the experiment (day 1) and day 7 after the start of the experiment, and on the other days, blood was collected once a day before administration (only before administration on days 2 to 6, day 8, and day 11 after the start of administration).
After collecting blood samples from the subjects, the samples were treated with 0.5 M sodium citrate (pH of 4.3) and centrifuged at 4° C., 2,500 g for 15 minutes to obtain plasma. The collected plasma was used for measurement of t-PA activity and stored frozen at -80° C. until measurement.
The t-PA activity was measured using a ZYMUPHEN tPA Activity kit (produced by HYPHEN BioMed). In this system, a plasma sample collected from a subject is reacted with human plasminogen to form plasmin by the action of tPA, the plasmin is reacted with a substrate specific to plasmin, and pNA, which is a degradation product produced, is measured by the absorbance at a wavelength of 405 nm with a plate reader.

male Crl:CD(SD) rats = test: Effect on central nervous system (functional observational battery); type: in vivo, rat; conditions: single oral dose, up to 300 mg/kg
Protocol: The effect of the present compound on the central nervous system was examined by the functional observational battery (FOB) in rats, using male Crl:CD(SD) rats. Specifically, the present compound was orally administered to the rats in a single dose, and the rats were observed before administration and 0.5, 1, 2, 4, 8, and 24 hours after administration. To a control group (six rats), a 0.5 w/v% carmellose sodium aqueous solution (vehicle) was administered instead of the present compound in the same manner. […] Thus, it was considered that the present compound has no effect on the central nervous system up to a dosage of 300 mg/kg in single oral dose administration using rats.

[2] = day 22, present compound 0.75 mg/kg/day oral 21 days, dexamethasone 0.25 mg/kg, mean±SD

Question: How did the “Ashcroft score compared with vehicle group” value ([1]; 5% significance level) turn out when `O=C(Nc1ccc(Cl)cc1C(=O)[O-])c1cccc(-c2cccc3cccnc23)c1.[Na+]` [present compound, sodium 5-chloro-2-({ [3-(quinolin-8-yl)phenyl]carbonyl}amino)benzoate] was run?
Answer: Its value is “significantly lower”.

Question: What about the “lung hydroxyproline value compared with vehicle group” value ([1]; 5% significance level) of the same compound?
Answer: Its value is “significantly lower”.

Question: And the Ashcroft score [1, 2]?
Answer: Its Ashcroft score is 2.2±0.3.

Question: What about the Lung hydroxyproline value [1, 2] of the same compound?
Answer: The Lung hydroxyproline value was 58.7±10.1 µg/left lung.

Question: And the “t-PA activity in blood vs placebo” value (t-PA; 60 mg/day oral, days 1 and 7)?
Answer: The value was “neither PAI-1 activity nor t-PA activity was different”.

Question: And the “time after administration of maximal increase in t-PA activity” value (t-PA; 120 mg/day oral)?
Answer: The value was 8 h.

Question: What about the “t-PA activity in blood” value (t-PA; 120 mg/day oral, days 1 and 7) of the same compound?
Answer: Its value is “increased”.

Question: And the “effect on the central nervous system” value (male Crl:CD(SD) rats)?
Answer: The value was “no effect”.
